Measured values as given in a compilation of properties of binary mixtures (doi:10.1016/j.molliq.2014.05.027).

Assay: xn = mol fraction of the nth substance listed
Conditions: 101 kPa

| viscosity (293.15 K, x2 = 0) | electrical conductivity (298.15 K, x1 = 0.002) | electrical conductivity (298.15 K, x1 = 0.0071) | electrical conductivity (298.15 K, x1 = 0.01) | electrical conductivity (298.15 K, x2 = 0) | viscosity (298.15 K, x2 = 0) | electrical conductivity (298.15 K, x2 = 0.1092) | electrical conductivity (298.15 K, x2 = 0.2563) | electrical conductivity (298.15 K, x2 = 0.5026) | electrical conductivity (298.15 K, x2 = 0.6515) | electrical conductivity (298.15 K, x2 = 0.8065) | electrical conductivity (298.15 K, x2 = 0.8514) | electrical conductivity (298.15 K, x2 = 0.9001) | electrical conductivity (298.15 K, x2 = 0.9252) | viscosity (303.15 K, x2 = 0.7993) | viscosity (308.15 K, x2 = 0) | viscosity (293.15 K, x1 = 1) | viscosity (298.15 K, x1 = 1) | viscosity (303.15 K, x1 = 1) | viscosity (313.15 K, x1 = 1) | SMILES |
| --- | --- | --- | --- | --- | --- | --- | --- | --- | --- | --- | --- | --- | --- | --- | --- | --- | --- | --- | --- | --- |
| 8.2 mPa·s | 0.522 S/m | 1.51 S/m | 1.92 S/m | 0.371 S/m | 6.93 mPa·s | 0.433 S/m | 0.553 S/m | 0.858 S/m | 1.21 S/m | 2 S/m | 2.52 S/m | 3.27 S/m | 3.73 S/m | 5.76 mPa·s | 5.07 mPa·s |  |  |  |  | CC(=O)[O-].Cn1cc[nH+]c1 + O |
|  |  |  |  |  |  |  |  |  |  |  |  |  |  |  |  | 1.002 mPa·s | 0.89 mPa·s | 0.797 mPa·s | 0.651 mPa·s | O + CC(=O)[O-].Cn1cc[nH+]c1 |
